From publication PMC9962921, “Interlaboratory Study to Evaluate a Testing Protocol for the Safety of Food Packaging Coatings” (Toxics, 2023)
Like-named read-outs stand apart in the source and are kept apart here.

Columns and labels:
[1] = target: T1, Aryl hydrocarbon Receptor (AhR) (Rattus norvegicus, UniProt P41738); conditions: read-out: EC50 standard range, AhR reference compound; historical range; ref BDS BioDetection Systems historical data; cited from earlier work
T1 sequence (P41738 10-853): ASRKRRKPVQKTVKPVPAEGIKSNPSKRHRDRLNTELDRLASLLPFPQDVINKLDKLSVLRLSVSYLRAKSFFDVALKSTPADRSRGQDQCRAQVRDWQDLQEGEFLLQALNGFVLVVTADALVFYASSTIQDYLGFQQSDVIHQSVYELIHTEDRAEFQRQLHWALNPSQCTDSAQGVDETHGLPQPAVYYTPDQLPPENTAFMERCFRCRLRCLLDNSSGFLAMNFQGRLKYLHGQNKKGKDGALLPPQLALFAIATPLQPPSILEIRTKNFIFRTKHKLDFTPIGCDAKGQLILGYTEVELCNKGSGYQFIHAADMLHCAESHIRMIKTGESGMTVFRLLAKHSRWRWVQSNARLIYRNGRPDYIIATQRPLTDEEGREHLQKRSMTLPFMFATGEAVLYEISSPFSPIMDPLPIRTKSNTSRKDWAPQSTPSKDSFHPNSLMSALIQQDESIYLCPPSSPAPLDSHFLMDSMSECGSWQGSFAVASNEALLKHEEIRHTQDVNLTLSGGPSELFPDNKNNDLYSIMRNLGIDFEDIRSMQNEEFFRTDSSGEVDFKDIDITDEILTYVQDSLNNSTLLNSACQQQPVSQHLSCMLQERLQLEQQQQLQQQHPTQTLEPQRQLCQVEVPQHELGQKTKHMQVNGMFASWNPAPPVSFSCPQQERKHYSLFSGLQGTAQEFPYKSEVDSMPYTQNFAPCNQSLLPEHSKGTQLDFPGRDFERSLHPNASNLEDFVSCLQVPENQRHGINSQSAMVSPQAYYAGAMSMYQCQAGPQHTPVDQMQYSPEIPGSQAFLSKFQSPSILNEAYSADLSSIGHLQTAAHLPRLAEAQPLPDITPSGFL

[2] = target: T1, Aryl hydrocarbon Receptor (AhR); test: AhR (PAH) CALUX reporter gene assay; conditions: EC50 AhR reference compound (mean)
Method: Briefly, cells were seeded in a 96-well plate (VWR, Dietikon, Switzerland) and incubated for 24 h at 37 °C, 5% CO2 and 100% humidity. […] In addition, a serial dilution of each of the different migrates were exposed in triplicates. After 24 h of exposure for cytotoxicity, ERα, AR and 4 h of exposure for poly-aromatic hydrocarbons (PAH) of exposure, the luciferase activity is measured with a luminometer plate reader (Mithras, Berthold, Germany).
Relative luminescence units obtained were processed as described by proprietary calculation template (BDS) (Amsterdam, The Netherlands). Receptor-binding activation was quantified as the amount of relative luciferase units (RLU) emitted after samples’ exposure. The signal is proportional to the amount of ligand-specific receptor-binding activation. After normalization to solvent control (DMSO) the percentage of relative induction (RI) or relative inhibition (RInh) was calculated for the selected nuclear receptors and the cell viability. The samples were then expressed as percentage of the maximum reference compound response. All dose responses and dilutions were performed in technical triplicates. […] For the PAH CALUX bioassay, the threshold level was set as 10%. […] Dose–response obtained between laboratories C and D was compared.

Q: With c1ccc2c(c1)cc1ccc3cccc4ccc2c1c34 [Benzo(a)pyrene, benzo[a]pyrene] as the molecule, how does the EC50 [1] read?
A: The EC50 was 1.6 to 16 nM.

Q: And the EC50 ([2]; LAB C)?
A: The EC50 was 3.3 nM.

Q: And the EC50 ([2]; LAB D)?
A: Its EC50 is 7.2 nM.
